{"source": "paper PMC7203245", "about": "“Lacosamide intake during pregnancy increases the incidence of foetal malformations and symptoms associated with schizophrenia in the offspring of mice” (Scientific Reports, 2020)", "assay": "LCM and related compounds (RC) in embryos and mothers' serum by high-resolution MS/MSe", "assay_type": "in vivo, mice", "conditions": "for presence in the serum of mothers: dams given 10-120 mg/kg LCM", "description": "Samples were extracted as described previously[25] with slight modifications. Briefly, embryos were rinsed with cold saline and ultrapure water, and their wet-weight was determined. […] The mixture was vortexed vigorously for 3 min and centrifuged at 13,000 g for 5 min. The supernatant was transferred to a new Eppendorf tube and evaporated to dryness in a stream of nitrogen gas. The residue was reconstituted with 50 µL of LC-MS Ultrapure water, vortexed for 20 s and centrifuged at 13,000 g for 5 min. The supernatant was transferred to a conic micro insert to be injected onto the UHPLC system.\nMS spectra data were collected between m/z 50 and 1000, and MS/MS spectra were registered between 50-300 Da. […] The MS^e procedure was used to identify metabolites in positive ionization mode. UPLC–QTOF-MS^e detection collects data using two scan functions, providing fragment ion information without precursor ion selection. A characteristic m/z in the low energy function allows identification through the fragment ions obtained with the high collision energy function. Two functions were acquired at different collision energies: a low energy function obtained at 2 eV; and a high-energy function obtained using a collision energy ramp ranging from 15 to 30 eV and spectra data collected between m/z 50 and 800. The data station operating the software was a MassLynx version 4.1, while metabolites were identified by means of Metabolynx XS (Waters, Micromass, Manchester, UK).\nIn this work the following routes were selected for these searches: phase I metabolites Reduction (+H2), Hydroxylation (O), Hydration (+H2O), 2xHydroxylation (+O2), Deacetylation (-C2H2O) and Demethylation (-CH2); and phase II metabolites Acetylation (+C2H2O) and Glucuronide (+C6H8O6).", "data": [{"smiles": "NCc1ccccc1", "note": "[RC 1]", "values": [{"measurement": "Embryos in which the LCM compound is present", "setting": "Maternal Dose 10 mg/kg", "result": "Embryo1 and 2"}, {"measurement": "presence in the serum of mothers", "result": "detected in the serum of all mothers"}, {"measurement": "number of embryos in which detected", "setting": "embryo from a dam treated with 10 mg/kg LCM", "result": 1}]}, {"smiles": "CC(=O)N[C@H](CO)C(=O)NCc1ccccc1", "note": "[RC 2, O-Demethyl LCM]", "values": [{"measurement": "Embryos in which the LCM compound is present", "setting": "Maternal Dose 10 mg/kg", "result": "Embryo1 and 2"}, {"measurement": "Embryos in which the LCM compound is present", "setting": "Maternal Dose 80 mg/kg", "result": "Embryo 5 and 6"}, {"measurement": "presence in the serum of mothers", "result": "detected in the serum of all mothers"}, {"measurement": "number of embryos in which detected", "setting": "embryos from dams treated with 10 mg/kg and 80 mg/kg LCM", "result": 2}]}, {"smiles": "CC(=O)N[C@H](CO)C(=O)NCc1ccccc1", "note": "[desmethylacosamide]", "values": [{"measurement": "presence in samples from dams", "setting": "dams that received 120 mg/kg LCM", "result": "some samples from the corresponding dams contained"}]}, {"smiles": "COC[C@@H](N)C(=O)NCc1ccccc1", "note": "[deacetylacosamide]", "values": [{"measurement": "presence in samples from mothers", "setting": "mothers who received 10 mg/kg LCM", "result": "contained"}]}]}
